Test results: US8207156B2, “Substituted pyrazoline compounds, their preparation and use as medicaments” (Laboratorios Del Dr. Esteve, S.A., priority 2005, dated 2012)

Columns and labels:
[1] = target: recombinant human cannabinoid 1 receptor (CB1) (Homo sapiens, UniProt P21554); assay: In vitro determination of antagonism to CB1-receptor ([35S]GTPγS binding assay, CHO cell membranes); format: biochemical; conditions: compound at 1 μM against agonist WIN 55,212-2 (3 nM to 3 μM); effect of Rimonabant (1 μM) defined as 100%
recombinant human cannabinoid 1 receptor (CB1), sequence (P21554 whole entry): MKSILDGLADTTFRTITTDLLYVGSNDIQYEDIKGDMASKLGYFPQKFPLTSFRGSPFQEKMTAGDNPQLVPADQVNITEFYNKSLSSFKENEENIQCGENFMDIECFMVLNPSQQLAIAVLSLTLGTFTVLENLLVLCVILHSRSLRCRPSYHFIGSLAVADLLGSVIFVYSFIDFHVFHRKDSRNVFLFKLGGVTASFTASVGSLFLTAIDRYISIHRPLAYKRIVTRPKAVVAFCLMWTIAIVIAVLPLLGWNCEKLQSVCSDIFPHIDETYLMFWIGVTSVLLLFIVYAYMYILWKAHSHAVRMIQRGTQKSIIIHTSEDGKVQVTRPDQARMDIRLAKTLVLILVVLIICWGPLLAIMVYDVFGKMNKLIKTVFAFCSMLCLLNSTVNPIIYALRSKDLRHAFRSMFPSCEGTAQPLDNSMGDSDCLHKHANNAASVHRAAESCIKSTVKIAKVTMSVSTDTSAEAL
Method in brief: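 Membranes from CHO cells stably expressing human CB1 (15 μg protein/well) incubated 60 min at 30° C., pH 7.4, with 5 μM GDP, saponin and 0.5 nM [35S]GTPγS, compound at 1 μM final, with or without WIN 55,212-2 (3 nM–3 μM). Bound radioactivity via filtration; basal subtracted, antagonism scaled to WIN 55,212-2 ± Rimonabant (1 μM) window as 100%.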

[2] = target: T1, CB1 receptor; assay: In-vitro determination of affinity to CB1/CB2-receptors (radioligand [3H]-CP55940 binding); conditions: binding data per pharmacological methods part I, table does not say whether human transfected receptor or rat cerebellum
T1 construct: IC50 [nM]; radioligand [3H]-CP55940
Method: (§1) The in-vitro determination of the affinity of the inventive substituted pyrazoline compounds to CB1/CB2-Rezeptors is carried out as described in the publication of Ruth A. Ross, Heather C. Brockie et al., “Agonist-inverse agonist characterization at CB1 and CB2 cannabinoid receptors of L-759633, L759656 and AM630”, British Journal of Pharmacology, 126, 665-672, (1999), whereby the transfected human CB1 and CB2 receptors of Receptor Biology, Inc. are used. The radioligand used for both receptors is [^3H]-CP55940. The respective parts of the description is hereby incorporated by reference and forms part of the present disclosure.
(§2) Binding affinity to CB1 receptor was evaluated according to a modification of the method described by Govaerts et al., Eur J Pharmac Sci 23, 233-243 (2004). The respective parts of the description is hereby incorporated by reference and forms part of the present disclosure.
(§3) Briefly, cerebellum from male wistar rats (250-300 g) were carefully dissected on ice and homogenates were prepared with Potter-Helveheim in a cold 50 mM Tris-HCl solution containing 5 mM MgCl2, 1 mM EDTA and 0.25 M sucrose, pH 7.4. The suspension was centrifuged at 1,000×g for 5 minutes. The supernatants were collected and centrifuged 50,000×g for 15 minutes. The resulting pellets were then resuspended in Tris-HCl buffer without sucrose, homogenized and incubated for 15 min at 37° C. in an orbital shaker bath and centrifuged again at 50,000×g for 15 min. Pellets were weighted, resuspended in Tris-HCl buffer without sucrose, homogenized with Ultraturrax at 13,500 rpm for 3×5 seconds and alicuoted in 0.9 ml volumes in Eppendorf tubes. Alicuotes were centrifuged at 20,800×g for 5 minutes, supernatants discarded and pellets were frozen at −80° C. until use. Total protein concentration was determined using the Bio-Rad Lowry method based kit. Competitive binding experiments were performed in presence of 1 nM [^3H]-CP 55,940 in siliconized glass tubes containing 100 μg protein/tube resuspended in 1 ml final volume of 50 mM Tris-HCl, 5 mM MgCl2, 1 mM EDTA, 0.5% (w/v) bovine serum albumin, pH 7.4. Compounds were present at various concentrations and the non specific binding was determined in the presence of 10 μM HU-210. After 1 hour incubation at 30° C., the suspension was rapidly filtered through 0.5% PEI pre-treated GF/B fiber filters on a 96-well harvester and washed 3 times with 3 ml ice-cold binding buffer without bovine serum albumin. Radioactivity on filters was measured with Wallac Winspectral 1414 counter by liquid scintillation in 6 ml Ecoscint H (National Diagnostics, U.K.). Assays were made in triplicates.
(§4) Binding data were analyzed by non-linear regression with the software GraphPad Prism Version 3.03.

[3] = target: T2, CB1 receptor (UniProt P20272); assay: as above; conditions: for Inhibition [%], 10^−7 M: compound at 10^−7 M; for Inhibition [%], 10^−8 M: compound at 10^−8 M
T2 construct: other: compound at 10^−7 M; radioligand [3H]-CP55940; other: compound at 10^−8 M
Method: as §1, §2, §3, §4

Row | SMILES | Antagonism [%] [1] | IC50 [2] | Inhibition [%], 10^−7 M [3] | Inhibition [%], 10^−8 M [3] | IC50 ([2]; hydrochloride) | Inhibition [%], 10^−7 M ([3]; hydrochloride) | Inhibition [%], 10^−8 M ([3]; hydrochloride)
1 | CC1CCCC(C)N1NC(=O)C1=NN(c2ccc(Cl)cc2Cl)C(c2ccc(Cl)cc2)C1 (centres unmarked) [Example 12, 5-(4-Chloro-phenyl)-1-(2,4-dichloro-phenyl)-4,5-dihydro-1H-pyrazole-3-carboxylic acid (2,6-dimethyl-piperidin-1-yl)-amide] | 78% | 250 nM | – | – | – | – | –
2 | CC1CCCCC1NC(=O)C1=NN(c2ccc(Cl)cc2Cl)C(c2ccc(Cl)cc2)C1 (centres unmarked) [Example 18, 5-(4-Chloro-phenyl)-1-(2,4-dichloro-phenyl)-4,5-dihydro-1H-pyrazole-3-carboxylic acid (2-methyl-cyclohexyl)-amide] | 78% | 25.1 nM | – | – | – | – | –
3 | O=C(C1=NN(c2ccc(Cl)cc2Cl)C(c2ccc(Cl)cc2)C1)N1CCC2CCCCC2C1 (centres unmarked) [Example 22, [5-(4-Chloro-phenyl)-1-(2,4-dichloro-phenyl)-4,5-dihydro-1H-pyrazol-3-yl]-(octahydro-isoquinolin-2-yl)-methanone] | 62% | 79.4 nM | – | – | – | – | –
4 | O=C(NN1CCCCC1)C1=NN(c2ccc(Cl)cc2Cl)C(c2ccc(F)cc2)C1 (centres unmarked) [Example 23, 1-(2,4-Dichloro-phenyl)-5-(4-fluoro-phenyl)-4,5-dihydro-1H-pyrazole-3-carboxylic acid piperidin-1-ylamide] | 91% | 39.8 nM | – | – | – | – | –
5 | Cl.O=C(NN1CC2CCCC2C1)C1=NN(c2ccc(Cl)cc2Cl)C(c2ccc(F)cc2)C1 (centres unmarked) [Example 91A, 1-(2,4-Dichloro-phenyl)-5-(4-fluoro-phenyl)-4,5-dihydro-1H-pyrazole-3-carboxylic acid (hexahydro-cyclopenta[c]pyrrol-2-yl)-amide] | – | 84 nM | 75.3% | 34.9% | – | – | –
6 | O=C(NN1CCCCCC1)C1=NN(c2ccc(Cl)cc2Cl)C(c2ccc(F)cc2)C1 (centres unmarked) [Example 96, 1-(2,4-Dichloro-phenyl)-5-(4-fluoro-phenyl)-4,5-dihydro-1H-pyrazole-3-carboxylic acid azepan-1-ylamide] | – | 56 nM | 74.8% | 43.3% | – | – | –
7 | COc1ccc(C2CC(C(=O)NN3CCCCC3)=NN2c2ccc(Cl)cc2Cl)cc1.Cl (centres unmarked) [Example 106, 1-(2,4-Dichloro-phenyl)-5-(4-methoxy-phenyl)-4,5-dihydro-1H-pyrazole-3-carboxylic acid piperidin-1-ylamide hydrochloride] | – | – | 76.1% | 23.4% | 32 nM | – | –
8 | COc1ccc(C2CC(C(=O)NN3CC4CCCC4C3)=NN2c2ccc(Cl)cc2Cl)cc1.Cl (centres unmarked) [Example 109, 1-(2,4-Dichloro-phenyl)-5-(4-methoxy-phenyl)-4,5-dihydro-1H-pyrazole-3-carboxylic acid (hexahydro-cyclopenta[c]pyrrol-2-yl)-amide hydrochloride] | – | – | – | – | 16 nM | 80.6% | 44%
9 | COc1ccc(C2CC(C(=O)NN3CC4CCCC4C3)=NN2c2ccc(Cl)cc2Cl)cc1.Cl (centres unmarked) [Example 109A, 1-(2,4-Dichloro-phenyl)-5-(4-methoxy-phenyl)-4,5-dihydro-1H-pyrazole-3-carboxylic acid (hexahydro-cyclopenta[c]pyrrol-2-yl)-amide] | – | 15 nM | 74.2% | 33.5% | – | – | –
10 | COc1ccc(C2CC(C(=O)NN3CCc4ccccc43)=NN2c2ccc(Cl)cc2Cl)cc1.Cl (centres unmarked) [Example 112, 1-(2,4-Dichloro-phenyl)-5-(4-methoxy-phenyl)-4,5-dihydro-1H-pyrazole-3-carboxylic acid (2,3-dihydro-indol-1-yl)-amide hydrochloride] | – | 106 nM | 61.8% | 46.3% | – | – | –
11 | COc1ccc(C2CC(C(=O)NN3CCCCCC3)=NN2c2ccc(Cl)cc2Cl)cc1.Cl (centres unmarked) [Example 114, 1-(2,4-Dichloro-phenyl)-5-(4-methoxy-phenyl)-4,5-dihydro-1H-pyrazole-3-carboxylic acid azepan-1-ylamide hydrochloride] | – | – | 68.7% | 47.6% | 24 nM | – | –
12 | COc1ccc(C2CC(C(=O)NN3CCCCCC3)=NN2c2ccc(Cl)cc2Cl)cc1 (centres unmarked) [Example 114A, 1-(2,4-Dichloro-phenyl)-5-(4-methoxy-phenyl)-4,5-dihydro-1H-pyrazole-3-carboxylic acid azepan-1-ylamide] | – | 18 nM | 79.3% | 41.4% | – | – | –
13 | O=C(NC1CCCCCC1)C1=NN(c2ccc(Cl)cc2Cl)C(c2ccc(Br)cc2)C1 (centres unmarked) [Example 130, 5-(4-Bromo-phenyl)-1-(2,4-dichloro-phenyl)-4,5-dihydro-1H-pyrazole-3-carboxylic acid cycloheptylamide] | – | 52 nM | 67.7% | 33.1% | – | – | –
14 | O=C(NC1CCCCCC1)C1=NN(c2ccc(Cl)cc2Cl)C(c2ccc(F)cc2)C1 (centres unmarked) [Example 131, 5-(4-Fluorophenyl)-1-(2,4-dichloro-phenyl)-4,5-dihydro-1H-pyrazole-3-carboxylic acid cycloheptylamide] | – | 115 nM | 70.2% | 42.9% | – | – | –
15 | Cl.O=C(NN1CCCCC1)C1=NN(c2ccc(Cl)cc2Cl)C(c2ccc(F)cc2)C1 (centres unmarked) [Example 135, 1-(2,4-Dichloro-phenyl)-5-(4-fluoro-phenyl)-4,5-dihydro-1H-pyrazole-3-carboxylic acid piperidin-1-ylamide hydrochloride] | – | – | 78.5% | 40.2% | 83 nM | – | –
16 | O=C(NN1CCCCCCC1)C1=NN(c2ccc(Cl)cc2Cl)C(c2ccc(Br)cc2)C1 (centres unmarked) [Example 146, 5-(4-bromo-phenyl)-1-(2,4-dichloro-phenyl)-4,5-dihydro-1H-pyrazole-3-carboxylic acid azocan-1-ylamide] | – | 12 nM | 71.8% | 35.2% | – | – | –
17 | O=C(NN1CCCCCCC1)C1=NN(c2ccc(Cl)cc2Cl)C(c2ccc(F)cc2)C1 (centres unmarked) [Example 147, 5-(4-fluoro-phenyl)-1-(2,4-dichloro-phenyl)-4,5-dihydro-1H-pyrazole-3-carboxylic acid azocan-1-ylamide] | – | 54 nM | 63.4% | 24.0% | – | – | –
18 | O=C(N[C@H]1CCCC[C@@H]1OCc1ccccc1)C1=NN(c2ccc(Cl)cc2Cl)C(c2ccc(Cl)cc2)C1 (stereo partly drawn) [Example 151, N-((1S,2S)-2-(benzyloxy)cyclohexyl)-5-(4-chlorophenyl)-1-(2,4-dichlorophenyl)-4,5-dihydro-1H-pyrazole-3-carboxamide] | – | 32 nM | 82.3% | 67.5% | – | – | –
19 | O=C(N[C@@H]1CCCC[C@H]1OCc1ccccc1)C1=NN(c2ccc(Cl)cc2Cl)C(c2ccc(Cl)cc2)C1 (stereo partly drawn) [Example 178, N-((1R,2R)-2-(benzyloxy)cyclohexyl)-5-(4-chlorophenyl)-1-(2,4-dichlorophenyl)-4,5-dihydro-1H-pyrazole-3-carboxamide] | – | 119 nM | 58% | 41.2% | – | – | –
20 | Cl.O=C(NN1CCc2ccccc21)C1=NN(c2ccc(Cl)cc2Cl)[C@@H](c2ccc(Cl)cc2)C1 [Example 181, (R)-5-(4-Chloro-phenyl)-1-(2,4-dichloro-phenyl)-4,5-dihydro-1H-pyrazole-3-carboxylic acid (2,3-dihydro-indol-1-yl)-amide hydrochloride] | – | – | 50.6% | 33.7% | 24 nM | – | –
